Source: US20250177473A1, “PEPTIDE REGULATORS OF METABOLISM” (Metabico, Inc., priority 2022, published 2025)

What was measured:
[1] = test system: male mice of CBA and C57Bl/6 hybrids, food deprived 12 hours; assay: Home cage feed consumption test; type: in vivo, mouse; details: leptin 1 mg/kg i.p. before testing
Description: The work was performed on 30 mature male mice of the first generation of CBA and C57Bl/6 hybrids weighing 22-24 grams. The animals were divided into treatment groups (Table 1).
Solutions for intranasal (i.n.) administration were prepared by dissolving the peptide in saline. The volume of i.n. administration: 1 μl per 1 g of animal weight. Solutions for intraperitoneal (i.p.) administration were prepared by dissolving the drug in saline. The volume of […]. administration: 10 μl per 1 g of animal weight. Solutions were prepared directly on the day of the experiment before the experiment.
All manipulations with animals were performed at the end of the adaptation period of 14 days.
Day 1—Adaptation of animals to the home cage food consumption test. In the evening, animals were deprived of food for 12 hours (overnight).
Day 2—Administration of the test substances and the food consumption test in a home cage for 1.5 hours. Before and after the test, the animals were weighed.
This test was performed to assess the appetite of animals after the treatment with tested compounds. The test was performed in 2 days. […]
Statistical data processing was carried out using nonparametric criteria (Mann-Whitney) for samples with a distribution other than normal. Normally distributed data were analyzed with one-way ANOVA (only Treatment factor) or repeated measures ANOVA (dynamics) with post hoc Fisher test. […]

[2] = test system: pStat3 (Y705) in the hypothalamus; assay: pStat3 (Y705) immunohistochemistry of mouse hypothalamus after administration; type: in vivo, C57Bl/6J mice; details: 60 minutes after administration; EPSI 10 mg/kg intranasally; leptin 5 mg/mL intraperitoneally; 24 h food deprivation
Description: Fifteen C57Bl/6J 15 weeks old mice (5 animals per group) were used in the study.
We performed food deprivation 24 hours prior to the administration of the compounds. The animals of the experimental group were administered with 10 mg/kg EPSI intranasally (EPSI was dissolved in 10 μL of saline per mouse, 5 μL in each nostril). Positive control animals were administered with 5 mg/mL leptin intraperitoneally (leptin was dissolved in 100 μL of saline per mouse). Negative control mice were administered with 100 μL of saline intraperitoneally. The mice were euthanized 60 minutes after the administration of the compounds.
Narcosis was performed using the combination of Zoletil (20 mg/kg) and Rometar (5 mg/kg). Next, transcardial perfusion was performed with saline to wash out the blood, then with a 10% formalin solution. After complete fixation, the animal bodies were decapitated, the brain was extracted and additionally fixed in 10% formalin, after which it was washed in PBS 3 times for 30 minutes and placed overnight in a 30% sucrose solution in PBS until the tissue was completely impregnated.
The brain samples were placed in a mold, and poured with the freezing medium. […]
The images were received using an inverted microscope Nikon Eclipse Ni. The number of positive cells was calculated using ImageJ software. […]

leptin
amount of food consumed over 90 minutes vs control [1]: did not differ | pStat3-positive cells in hypothalamic sections (ratio to total nuclei) [2]: 3%
